The record followed here is PMC9090415, “Discovery of small molecule inhibitors of Plasmodium falciparum apicoplast DNA polymerase” (Journal of Enzyme Inhibition and Medicinal Chemistry, 2022).

The target in this experiment is P. falciparum apicoplast DNA polymerase (Pf-apPOL) (Plasmodium falciparum, UniProt Q8ILY1). Description: Fluorescence-based high-throughput DNA polymerase assay (molecular beacon), primary screen and dose-response.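 For % inhibition ApPOL 90': test concentration in µM.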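 For % inhibition apPOL 180': test concentration in µM.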 In kind it is biochemical. The note with it: for DNA Pol: 90 min, 10 µM; for IC50: supplemental file 2, sheet IC50 nontoxic compounds, Pf-apPOL. In outline: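 Single-point screening used 10 µM compound with 20 nM polymerase, 20 nM hairpin substrate and 6 µM dNTPs for 90 min at 25 °C. Confirmatory titrations (2.5–80 µM) followed fluorescence at three times, and IC50 was derived from a fit including a cooperativity term n.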
Chain of P. falciparum apicoplast DNA polymerase (Pf-apPOL) (Q8ILY1 entry or part of it): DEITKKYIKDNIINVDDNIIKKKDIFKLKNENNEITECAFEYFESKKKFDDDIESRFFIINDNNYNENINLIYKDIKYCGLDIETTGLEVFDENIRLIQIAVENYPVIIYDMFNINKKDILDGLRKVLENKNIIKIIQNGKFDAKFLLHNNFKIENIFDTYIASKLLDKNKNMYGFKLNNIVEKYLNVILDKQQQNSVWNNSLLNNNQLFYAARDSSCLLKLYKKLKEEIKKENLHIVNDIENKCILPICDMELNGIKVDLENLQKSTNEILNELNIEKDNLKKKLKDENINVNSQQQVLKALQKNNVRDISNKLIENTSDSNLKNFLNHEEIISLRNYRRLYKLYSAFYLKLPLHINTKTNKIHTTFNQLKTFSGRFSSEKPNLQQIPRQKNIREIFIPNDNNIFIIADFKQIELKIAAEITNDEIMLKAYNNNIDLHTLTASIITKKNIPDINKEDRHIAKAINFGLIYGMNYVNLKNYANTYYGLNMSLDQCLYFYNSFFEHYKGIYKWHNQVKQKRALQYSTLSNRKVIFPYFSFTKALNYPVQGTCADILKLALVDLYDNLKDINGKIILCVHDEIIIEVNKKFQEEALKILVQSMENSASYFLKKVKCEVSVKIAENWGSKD

The mark [1] stands for this setting: primary screen value of the 186 hits, unit not given.
Setting [2] is: primary screen value, head "DNA Pol", unit not given.

`O=C(Cn1ccc2c(=O)[nH]ccc21)Nc1cccc(Cl)c1` [Molecule 23, O=C(Cn1ccc2c1cc[nH]c2=O)Nc1cccc(c1)Cl]: the “% inhibition Apo pol 10'” value reads like this: (DRC-1, concentration 2.5) 1.228%; (DRC-1, concentration 5) 14.8384%; (DRC-1, concentration 10) 62.4441%; (DRC-1, concentration 20) 81.0439%; (DRC-1, concentration 40) 80.7703%; (DRC-1, concentration 80) 68.5193%. For the same compound, the “% inhibition Apol 90'” value is on record as -3.118% (DRC-1, 90', concentration 2.5); 4.6922% (DRC-1, 90', concentration 5); 48.8063% (DRC-1, 90', concentration 10); 74.6886% (DRC-1, 90', concentration 20); 82.985% (DRC-1, 90', concentration 40); 79.3379% (DRC-1, 90', concentration 80). The “% inhibition apPOL 180'” value (DRC-1, 180', concentration 2.5) is -7.139%; the “% inhibition apPOL 180'” value (DRC-1, 180', concentration 5) is given as -3.837%; the “% inhibition apPOL 180'” value (DRC-1, 180', concentration 10) is listed as 31.8886%; the “% inhibition apPOL 180'” value (DRC-1, 180', concentration 20) is 62.9592%; the “% inhibition apPOL 180'” value (DRC-1, 180', concentration 40) is on record as 80.4785%; the “% inhibition apPOL 180'” value (DRC-1, 180', concentration 80) is 82.7611%. Also, the “% inhibition apPOL 180'” value reads like this: (DRC-2, 180', concentration 10 (unit not given)) 57%; (DRC-2, 180', concentration 80 (unit not given)) 65%; (DRC-2, 180', concentration 2.5) -5%; (DRC-2, 180', concentration 5) 18%; (DRC-2, 180', concentration 10) 57%; (DRC-2, 180', concentration 20) 71%. Further, the “% inhibition apPOL 180'” value runs as follows: (DRC-2, 180', concentration 40) 72%; (DRC-2, 180', concentration 80) 65%. For the same compound, the “% inhibition Apol 40'” value was 63% (DRC-2, 40', concentration 10 (unit not given)); 65% (DRC-2, 40', concentration 20 (unit not given)); 6% (DRC-2, 40', concentration 2.5); 35% (DRC-2, 40', concentration 5); 63% (DRC-2, 40', concentration 10); 65% (DRC-2, 40', concentration 20). Besides, the “% inhibition Apol 40'” value is, setting by setting: (DRC-2, 40', concentration 40) 60%; (DRC-2, 40', concentration 80) 49%. The “% inhibition ApPOL 90'” value (DRC-2, 90', concentration 10 (unit not given)) is given as 63%; the “% inhibition ApPOL 90'” value (DRC-2, 90', concentration 80 (unit not given)) is 57%; the “% inhibition ApPOL 90'” value (DRC-2, 90', concentration 2.5) stood at 3%; the “% inhibition ApPOL 90'” value (DRC-2, 90', concentration 5) stood at 31%; the “% inhibition ApPOL 90'” value (DRC-2, 90', concentration 10) is recorded as 63%; the “% inhibition ApPOL 90'” value (DRC-2, 90', concentration 20) was determined as 69%. Further, the “% inhibition ApPOL 90'” value (DRC-2, 90', concentration 40) was 67% and the “% inhibition ApPOL 90'” value (DRC-2, 90', concentration 80) came out at 57%. Also, the “% inhibition Apo pol 5'” value reads like this: (DRC-2, concentration 2.5) 7%; (DRC-2, concentration 5) 28%; (DRC-2, concentration 10) 46%; (DRC-2, concentration 20) 43%; (DRC-2, concentration 40) 34%; (DRC-2, concentration 80) 19%. Further, the “DNA Pol” value reads like this: under setting [1], 79; under setting [2], 79.
With `N#Cc1c(C2CCCCC2)nc(Sc2ccc(C(F)(F)F)cc2[N+](=O)[O-])[nH]c1=O` [Molecule 20], the IC50 – broadly, the concentration at which inhibition is half-maximal – stood at 8.81 µM.
Still for that read-out and setting: the same measure for `O=c1cc(-c2ccccc2)oc2c(O)c(O)ccc12` [Molecule 84]: 32.2 µM.
Regarding `O=c1cc(-c2ccccc2Cl)oc2c(NS(=O)(=O)c3cc(Cl)cc(Cl)c3O)ccc(O)c12` [KU0104277], the “% inhibition Apo pol 10'” value reads like this: (DRC-1, concentration 2.5) -4.204%; (DRC-1, concentration 5) 6.708%; (DRC-1, concentration 10) 7.439%; (DRC-1, concentration 20) 27.5333%; (DRC-1, concentration 40) 73.9275%; (DRC-1, concentration 80) 90.8547%. Moreover, the “% inhibition Apol 90'” value by setting is: (DRC-1, 90', concentration 2.5) -8.287%; (DRC-1, 90', concentration 5) 2.039%; (DRC-1, 90', concentration 10) 0.6918%; (DRC-1, 90', concentration 20) 20.1462%; (DRC-1, 90', concentration 40) 69.1951%; (DRC-1, 90', concentration 80) 87.9641%. Moreover, the “% inhibition apPOL 180'” value by setting is: (DRC-1, 180', concentration 2.5) -13.4888%; (DRC-1, 180', concentration 5) -5.423%; (DRC-1, 180', concentration 10) -7.477%; (DRC-1, 180', concentration 20) 7.115%; (DRC-1, 180', concentration 40) 55.1056%; (DRC-1, 180', concentration 80) 83.6554%. Moreover, the “% inhibition apPOL 180'” value reads like this: (DRC-2, 180', concentration 2.5) -2.11%; (DRC-2, 180', concentration 5) -2.49%; (DRC-2, 180', concentration 10) 33%; (DRC-2, 180', concentration 20) 3.69%; (DRC-2, 180', concentration 40) 72%; (DRC-2, 180', concentration 80) 73%. Also, the “% inhibition Apo pol 5'” value was -4% (DRC-2, concentration 2.5); -2.32% (DRC-2, concentration 5); 35% (DRC-2, concentration 10); 11% (DRC-2, concentration 20); 63% (DRC-2, concentration 40); 65% (DRC-2, concentration 80). For the same compound, the “% inhibition Apo pol 5'” value (conc. 20, DRC-2) was found to be 11%. The “% inhibition Apol 40'” value (DRC-2, 40', concentration 2.5) was -1.34%; the “% inhibition Apol 40'” value (DRC-2, 40', concentration 5) is -1%; the “% inhibition Apol 40'” value (DRC-2, 40', concentration 10) turned out to be 42%; the “% inhibition Apol 40'” value (DRC-2, 40', concentration 20) is 11%; the “% inhibition Apol 40'” value (DRC-2, 40', concentration 40) is reported as 74%; the “% inhibition Apol 40'” value (DRC-2, 40', concentration 80) is listed as 75%. Further, the “% inhibition Apol 40'” value was -1% (conc. 5, 40', DRC-2); 11% (conc. 20, 40', DRC-2); 75% (conc. 80, 40', DRC-2). In addition, the “% inhibition ApPOL 90'” value is given as -1% (DRC-2, 90', concentration 2.5); 0.948% (DRC-2, 90', concentration 5); 41% (DRC-2, 90', concentration 10); 9% (DRC-2, 90', concentration 20); 75% (DRC-2, 90', concentration 40); 76% (DRC-2, 90', concentration 80). Further, the “% inhibition ApPOL 90'” value (conc. 2.5, 90', DRC-2) is -1% and the “% inhibition ApPOL 90'” value (conc. 40, 90', DRC-2) was 75%. Also, the “DNA Pol” value (primary screen value by plate and well) came out at 36; the “DNA Pol” value under setting [1] came to 36.
For `Cc1cccc(NC(=O)Cn2ccc3c(=O)[nH]ccc32)c1C` [Molecule 11], the IC50 was 7.57 µM.
For `CN(C)C=CC(=O)c1ccccn1` [Molecule 64], the IC50 was found to be 18.5 µM.
For `Cc1ccc(CCNC(=O)c2cnn3c(O)c(Cc4ccccc4F)c(C)nc23)cc1` [KU0097142], the “% inhibition Apo pol 10'” value is, setting by setting: (DRC-1, concentration 2.5) -13.7377%; (DRC-1, concentration 5) -17.1874%; (DRC-1, concentration 10) -18.6102%; (DRC-1, concentration 20) 32.4745%; (DRC-1, concentration 40) 80.8586%; (DRC-1, concentration 80) 88.0629%. Besides, the “% inhibition Apol 90'” value is, setting by setting: (DRC-1, 90', concentration 2.5) -9.394%; (DRC-1, 90', concentration 5) -5.811%; (DRC-1, 90', concentration 10) -11.7224%; (DRC-1, 90', concentration 20) 36.3215%; (DRC-1, 90', concentration 40) 78.277%; (DRC-1, 90', concentration 80) 85.9002%. Moreover, the “% inhibition apPOL 180'” value reads like this: (DRC-1, 180', concentration 2.5) -10.2215%; (DRC-1, 180', concentration 5) -8.372%; (DRC-1, 180', concentration 10) -12.5375%; (DRC-1, 180', concentration 20) 23.0268%; (DRC-1, 180', concentration 40) 70.309%; (DRC-1, 180', concentration 80) 81.7781%. The “% inhibition apPOL 180'” value (DRC-2, 180', concentration 40 (unit not given)) was 62%; the “% inhibition apPOL 180'” value (DRC-2, 180', concentration 2.5) is listed as -2.35%; the “% inhibition apPOL 180'” value (DRC-2, 180', concentration 5) was determined as 12%; the “% inhibition apPOL 180'” value (DRC-2, 180', concentration 10) amounted to 13%; the “% inhibition apPOL 180'” value (DRC-2, 180', concentration 20) was found to be 43%; the “% inhibition apPOL 180'” value (DRC-2, 180', concentration 40) is on record as 62%. Moreover, the “% inhibition apPOL 180'” value (DRC-2, 180', concentration 80) is 69%. The “% inhibition Apol 40'” value is, setting by setting: (DRC-2, 40', concentration 5 (unit not given)) 17%; (DRC-2, 40', concentration 40 (unit not given)) 67%; (DRC-2, 40', concentration 2.5) -0.896%; (DRC-2, 40', concentration 5) 17%; (DRC-2, 40', concentration 10) 21%; (DRC-2, 40', concentration 20) 54%. Also, the “% inhibition Apol 40'” value (DRC-2, 40', concentration 40) is 67% and the “% inhibition Apol 40'” value (DRC-2, 40', concentration 80) turned out to be 71%. For the same compound, the “% inhibition ApPOL 90'” value reads like this: (DRC-2, 90', concentration 5 (unit not given)) 17%; (DRC-2, 90', concentration 40 (unit not given)) 67%; (DRC-2, 90', concentration 2.5) -1.26%; (DRC-2, 90', concentration 5) 17%; (DRC-2, 90', concentration 10) 19%; (DRC-2, 90', concentration 20) 52%. In addition, the “% inhibition ApPOL 90'” value (DRC-2, 90', concentration 40) is reported as 67% and the “% inhibition ApPOL 90'” value (DRC-2, 90', concentration 80) came to 72%. In addition, the “% inhibition Apo pol 5'” value by setting is: (DRC-2, concentration 2.5) -3.79%; (DRC-2, concentration 5) 11%; (DRC-2, concentration 10) 15%; (DRC-2, concentration 20) 45%; (DRC-2, concentration 40) 57%; (DRC-2, concentration 80) 62%. Further, the “% inhibition Apo pol 5'” value (DRC-2, concentration 80 (unit not given)) is on record as 62%. Besides, the “DNA Pol” value is on record as 48 under setting [1] and 48 under setting [2].
